Reference: publication PMC5889410, “Design and Biological Evaluation of Antifouling Dihydrostilbene Oxime Hybrids” (Marine Biotechnology (New York, N.y.), 2018)
Values after ≈ are worked out from the molar mass of the structure shown.

Tests used:
[1] = tested on: Pleurochrysis roscoffensis; test: Microalgal adhesion assay (chlorophyll a); assay type: cell-based; details: Chrysotila roscoffensis, 120 h, 5 days incubation, 10–0.01 μg/mL tested, read-out: MIC against the adhesion (A) of microalgae, P. roscoffensis
Text: (§1) Cyprid larvae of B. improvisus were reared in a laboratory cultivating system at Tjärnö Marine Biological Laboratory, University of Gothenburg, Sweden, as previously described by Berntsson et al. ([2000]). Four pure, but non-axenic, marine microalgae (obtained from Algobank, Caen, France) and 10 marine bacterial strains were used (Table 1) as representative microfoulers. These strains represent fouling species encountered in both estuarine and marine environments (Moodie et al. [2017b]). The bacteria were grown at 26 °C in a marine medium, composed of 0.5% peptone (neutralized bacteriological peptone, Oxoid Ltd.) in filtered (Whatman 1001–270, pore size 11 μm) natural seawater. Microalgae were grown and maintained at 22 °C in F/2 medium.
(§2) Microplates containing the compounds in ranging concentrations (10–0.01 μg/mL) were prepared from MeOH stock solutions as previously described (Trepos et al. [2014]; Moodie et al. [2017a]). Microalgal stock solutions were prepared using the chlorophyll analysis methodology of Chambers et al. ([2011]). The pretreated microplate wells were treated with 100 μL of the algal stock solutions (0.1 mg chlorophyll a/mL). The plates were then incubated for 5 days at 20 °C under constant light exposure (140 μmol m^−2 s^−1). Both microalgal adhesion and growth inhibition were measured. Growth was determined by analysis of liberated chlorophyll a after centrifugation and methanol addition. Chlorophyll a was quantified fluorometrically. MIC value for algal growth was defined as the lowest concentration yielding a decrease in chlorophyll a content. Microalgal adhesion was determined in an analogous manner where the non-attached algal cells were removed prior to methanol addition (100 μL), releasing chlorophyll a from the remaining algal biofilms. The MIC for adhesion was defined as the lowest compound concentration causing a reduction in […]. Toxicity experiments were performed in an analogous manner to those described for the bacterial assays.

Halamphora coffeaeformis [2] = test: Microalgal adhesion assay (chlorophyll a); assay type: cell-based; details: Halamphora coffeiformis, 120 h, 5 days incubation, 10–0.01 μg/mL tested, read-out: MIC against the adhesion (A) of microalgae, H. coffeaformis
Text: as §1, §2

Porphyridium purpureum [3] = test: Microalgal adhesion assay (chlorophyll a); assay type: cell-based; details: 120 h, 5 days incubation, 10–0.01 μg/mL tested, read-out: MIC against the adhesion (A) of microalgae, P. purpureum
Text: as §1, §2

Vibrio proteolyticus = test: Bacterial growth assay (OD 630 nm); assay type: cell-based; details: 48 h incubation, 10–0.01 μg/mL tested, read-out: MIC against the growth of marine bacteria, V.p.
Text: as §1
(§3) Bacterial strain adhesion and growth were determined according to the methods of Thabard et al. ([2011]). Bacterial suspensions (100-μL aliquots, 2 × 10^8 colony forming units/mL) were aseptically added to the compound containing microplate wells (10–0.01 μg/mL), and the plates were incubated for 48 h at 26 °C. Media only was used as a blank. Bacterial growth was monitored spectroscopically at 630 nm. The minimal inhibitory concentration (MIC) for bacterial growth was defined as the lowest concentration which results in a decrease in OD. After 48-h incubation time, the bacterial adhesion assay was conducted by emptying the wells and rinsing with sterile seawater (100 μL) to remove non-attached cells, and air-drying at room temperature. The residual bacterial biofilm was stained with aqueous crystal violet (100 μL, 0.3% v/v) and the OD measured at 595 nm (Sonak and Bhosle [1995]). […] If inhibition was observed, toxicity tests were conducted. The well contents were transferred into a flask of fresh media, and growth was measured after 5 days of additional incubation. The mode of action was deemed biostatic if an increase in OD was measured at 595 nm (Moodie et al. [2017a]).

Shewanella putrefaciens = test: Bacterial growth assay (OD 630 nm); assay type: cell-based; details: 48 h incubation, 10–0.01 μg/mL tested, read-out: MIC against the growth of marine bacteria, S.p.
Text: as §1, §3

Vibrio carchariae = test: Bacterial growth assay (OD 630 nm); assay type: cell-based; details: Vibrio harveyi, 48 h incubation, 10–0.01 μg/mL tested, read-out: MIC against the growth of marine bacteria, V.c.
Text: as §1, §3

Roseobacter litoralis = test: Bacterial growth assay (OD 630 nm); assay type: cell-based; details: 48 h incubation, 10–0.01 μg/mL tested, read-out: MIC against the growth of marine bacteria, R.l.
Text: as §1, §3

Vibrio natriegens = test: Bacterial growth assay (OD 630 nm); assay type: cell-based; details: 48 h incubation, 10–0.01 μg/mL tested, read-out: MIC against the growth of marine bacteria, V.n.
Text: as §1, §3

[4] = tested on: Pseudoalteromonas elyakovii; test: Bacterial growth assay (OD 630 nm); assay type: cell-based; details: 48 h incubation, 10–0.01 μg/mL tested, read-out: MIC against the growth of marine bacteria, P.e.
Text: as §1, §3

Vibrio aestuarianus [5] = test: Bacterial growth assay (OD 630 nm); assay type: cell-based; details: 48 h incubation, 10–0.01 μg/mL tested, read-out: MIC against the growth of marine bacteria, V.a.
Text: as §1, §3

Halomonas aquamarina = test: Bacterial growth assay (OD 630 nm); assay type: cell-based; details: Vreelandella aquamarina, 48 h incubation, 10–0.01 μg/mL tested, read-out: MIC against the growth of marine bacteria, H.a.
Text: as §1, §3

Vibrio harveyi = test: Bacterial growth assay (OD 630 nm); assay type: cell-based; details: 48 h incubation, 10–0.01 μg/mL tested, read-out: MIC against the growth of marine bacteria, V.h.
Text: as §1, §3

Vibrio aestuarianus [6] = test: Bacterial adhesion assay (crystal violet, OD 595 nm); assay type: cell-based; details: 48 h, read-out: MIC against the adhesion of marine bacteria, V.a.
Text: as §1, §3

[7] = tested on: Pleurochrysis roscoffensis; test: Microalgal growth assay (chlorophyll a); assay type: cell-based; details: Chrysotila roscoffensis, 120 h, 5 days incubation, 10–0.01 μg/mL tested, read-out: MIC against the growth (G) of microalgae, P. roscoffensis
Text: as §1, §2

Halamphora coffeaeformis [8] = test: Microalgal growth assay (chlorophyll a); assay type: cell-based; details: Halamphora coffeiformis, 120 h, 5 days incubation, 10–0.01 μg/mL tested, read-out: MIC against the growth (G) of microalgae, H. coffeaformis
Text: as §1, §2

Cylindrotheca closterium = test: Microalgal growth assay (chlorophyll a); assay type: cell-based; details: 120 h, 5 days incubation, 10–0.01 μg/mL tested, read-out: MIC against the growth (G) of microalgae, C. closterium
Text: as §1, §2

Porphyridium purpureum [9] = test: Microalgal growth assay (chlorophyll a); assay type: cell-based; details: 120 h, 5 days incubation, 10–0.01 μg/mL tested, read-out: MIC against the growth (G) of microalgae, P. purpureum
Text: as §1, §2

marine bacteria [10] = test: Bacterial adhesion assay, whole panel of ten strains; assay type: cell-based, 10 marine bacterial strains; details: tested up to 10 μg/mL, active = MIC of 10 μg/mL or below
Text: as §1, §3

microalgae = test: Microalgal adhesion and growth, whole panel of four species; assay type: cell-based, four marine microalgae; details: 10–0.01 μg/mL tested
Text: as §1, §2

[11] = tested on: Balanus improvisus cyprid larvae; test: whole plant or invertebrate; assay type: in vivo; details: for IC50: Amphibalanus improvisus, 120 h, read-out: IC50 (cyprid settlement inhibition); for Toxicity (%) (dead cyprids): Balanus improvisus, in vivo, 5 days, 5 μg/mL
Text: as §1
Stock solutions of compounds in DMSO were serially diluted in untreated polystyrene Petri dishes containing 10 mL of filtered (0.2 μm) seawater, affording final concentrations ranging from 0.1 to 10 μg/mL. Freshly molted balanide cyprids (18–22) were added to each Petri dish and incubated at ambient temperature (20–25 °C) for 5 days. Cyprid metamorphosis was assessed using a dissecting microscope where the numbers of juvenile settled, free-swimming, and dead cyprids were noted. Initial compound screening was conducted at 5 μg/mL, and full IC50 determination was performed only on compounds displaying > 50% inhibition at that concentration. The IC50 was defined as the concentration preventing 50% of the cyprid settlement on the Petri dish surface. Each concentration was replicated four times (n = 4), and dishes containing 0.1% of DMSO were used as negative controls. The commercial AF agent Sea-nine™ was employed as a positive control.

[12] = tested on: Balanus improvisus cyprid larvae; details: B. improvisus larvae settlement; ref Ortlepp et al. [2007]; cited from earlier work
marine bacteria [13] = test: Bacterial growth assay, whole panel of ten strains; assay type: cell-based, 10 marine bacterial strains; details: tested up to 10 μg/mL
Text: as §1, §3

Structure (SMILES)	MIC (Halamphora coffeaeformis [2])	MIC (Porphyridium purpureum [3])	MIC (Vibrio proteolyticus)	MIC (Shewanella putrefaciens)	MIC (Vibrio carchariae)	MIC (Roseobacter litoralis)	MIC (Vibrio natriegens)	MIC [4]	MIC (Vibrio aestuarianus [5])	MIC (Halomonas aquamarina)	MIC (Vibrio harveyi)	MIC [7]	MIC (Halamphora coffeaeformis [8])	MIC (Cylindrotheca closterium)	MIC (Porphyridium purpureum [9])	MIC / activity against the adhesion of all bacteria tested (marine bacteria [10])	MIC / activity against the attachment and growth of microalgae (microalgae)	IC50 [11]	Toxicity (%) (dead cyprids) [11]	further results
COc1cc(C(Cc2cccc(O)c2)=NO)ccc1O [Compound 13, 1-(3-methoxy-4-hydroxyphenyl)-1-hydroxyimino-2-(3’-hydroxyphenyl)-ethane]	0.01 µg/mL (≈ 0.0366 µM)	10 µg/mL (≈ 36.6 µM)	> 10 µg/mL	> 10 µg/mL	> 10 µg/mL	> 10 µg/mL	1 µg/mL (≈ 3.66 µM)	> 10 µg/mL	> 10 µg/mL	> 10 µg/mL	> 10 µg/mL	0.1 µg/mL (≈ 0.366 µM)	0.1 µg/mL (≈ 0.366 µM)	1 µg/mL (≈ 3.66 µM)	1 µg/mL (≈ 3.66 µM)	displayed inhibitory activities	inhibited both the settlement and growth of all of the tested species	5 µg/mL (≈ 18.3 µM)	1.6%	MIC [1]: 1 µg/mL (≈ 3.66 µM); MIC (Vibrio aestuarianus [6]): 0.1 µg/mL (≈ 0.366 µM)
N[C@@H](Cc1ccc(O)cc1)C(=O)NCCc1ccc(O)cc1 [Compound 5, L-Tyrosinyltyramine]	–	–	–	–	–	–	–	–	–	–	–	–	–	–	–	–	–	–	–	activity against larvae settlement [12]: inactive
COc1ccc(C(Cc2ccc(O)cc2)=NO)cc1OC [Compound 8, 1-(3,4-dimethoxyphenyl)-1-hydroxyimino-2-(4’-hydroxyphenyl)-ethane]	–	–	> 10 µg/mL	1 µg/mL (≈ 3.48 µM)	> 10 µg/mL	> 10 µg/mL	> 10 µg/mL	> 10 µg/mL	> 10 µg/mL	10 µg/mL (≈ 34.8 µM)	> 10 µg/mL	10 µg/mL (≈ 34.8 µM)	10 µg/mL (≈ 34.8 µM)	10 µg/mL (≈ 34.8 µM)	> 10 µg/mL	^aCompounds 7, 8, 10, 11, and 12 were inactive against the adhesion of all bacteria tested up to 10 μg/mL	–	5 µg/mL (≈ 17.4 µM)	0.0%	–
COc1ccc(C(Cc2ccccc2)=NO)cc1OC [Compound 7, 1-(3,4-dimethoxyphenyl)-1-hydroxyimino-2-phenylethane]	0.01 µg/mL (≈ 0.0369 µM)	1 µg/mL (≈ 3.69 µM)	> 10 µg/mL	> 10 µg/mL	10 µg/mL (≈ 36.9 µM)	> 10 µg/mL	> 10 µg/mL	> 10 µg/mL	10 µg/mL (≈ 36.9 µM)	> 10 µg/mL	1 µg/mL (≈ 3.69 µM)	0.01 µg/mL (≈ 0.0369 µM)	0.1 µg/mL (≈ 0.369 µM)	1 µg/mL (≈ 3.69 µM)	10 µg/mL (≈ 36.9 µM)	–	inhibited both the settlement and growth of all of the tested species	2.5 µg/mL (≈ 9.21 µM)	5.8%	MIC / activity against the growth of all bacteria tested (marine bacteria [13]): modest activity
